Source: US8399452B2, “Dibenzo[b,f][1,4]oxazepin-11-yl-N-hydroxybenzamides as HDAC inhibitors” (Methylgene Inc., priority 2006, dated 2013)

The compounds below were run against histone deacetylase (HDAC Enzyme) (assay: Inhibition of Histone Deacetylase Enzymatic Activity (Boc-Lys(Ac)-AMC, Fluor-de-Lys developer)). Conditions: Table 10; read-out: HDAC Inhibition (IC50 μM) HDAC Enzyme.
Assay type: biochemical
Procedure: The following protocol is used to assay the compounds of the invention.
The mixture is pre-incubated for 5 minutes at room temperature. The reaction is started by bringing the temperature to 37° C. and adding 16 μl substrate. Total reaction volume is 50 μl.
In the Tables 8, 9 and 10, A≦[…]<B≦0.1 μM; 0.1 μM<C≦1 μM; and 1 μM<D≦10 μM.

Row | IC50 [µM] | SMILES
1 | < 0.05 | O=C(/C=C/c1ccc(CN2C(=O)c3cccnc3N(C3CC3)c3ccccc32)cc1)NO [(E)-3-(4-((11-cyclopropyl-5-oxo-5H-benzo[b]pyrido[2,3-e][1,4]diazepin-6(11H)-yl)methyl)phenyl)-N-hydroxyacrylamide]
2 | 0.05 to 0.1 | O=C(/C=C/c1ccc(CN2c3ccccc3C=Cc3ccccc32)cc1)NO [(E)-3-(4-(((Z)-5H-dibenzo[b,f]azepin-5-yl)methyl)phenyl)-N-hydroxyacrylamide]
3 | 0.1 to 1 | O=C(/C=C/c1ccc2c(c1)C=Cc1ccccc1N2CC1CC1)NO [(E)-3-((Z)-5-(cyclopropylmethyl)-5H-dibenzo[b,f]azepin-2-yl)-N-hydroxyacrylamide]
4 | 0.1 to 1 | O=C(NO)c1cnc(N2CCC[C@H]2c2nc3ccccc3[nH]2)nc1 [(S)-2-(2-(1H-benzo[d]imidazol-2-yl)pyrrolidin-1-yl)-N-hydroxypyrimidine-5-carboxamide]
5 | 0.1 to 1 | O=C(Cc1ccc(CN2c3ccccc3C=Cc3ccccc32)cc1)NO [(Z)-2-(4-((5H-dibenzo[b,f]azepin-5-yl)methyl)phenyl)-N-hydroxyacetamide]
6 | 1 to 10 | O=C(CN1c2ccccc2C=Cc2ccccc21)NO [(Z)-2-(5H-dibenzo[b,f]azepin-5-yl)-N-hydroxyacetamide]
7 | 0.1 to 1 | O=C(NO)c1cccc(CN2c3ccccc3C=Cc3ccccc32)c1 [(Z)-3-((5H-dibenzo[b,f]azepin-5-yl)methyl)-N-hydroxybenzamide]
8 | 1 to 10 | O=C(CCCN1c2ccccc2C=Cc2ccccc21)NO [(Z)-4-(5H-dibenzo[b,f]azepin-5-yl)-N-hydroxybutanamide]

Row | SMILES | IC50 [µM]
9 | CN1C(=O)CN=C(c2ccccc2)c2ccc(/C=C/C(=O)NO)cc21 [(E)-N-hydroxy-3-((Z)-1-methyl-2-oxo-5-phenyl-2,3-dihydro-1H-benzo[e][1,4]diazepin-8-yl)acrylamide] | 0.1 to 1
10 | O=C(/C=C/c1ccc2c(c1)NC(=O)CN=C2c1ccccc1)NO [(E)-N-hydroxy-3-((Z)-2-oxo-5-phenyl-2,3-dihydro-1H-benzo[e][1,4]diazepin-8-yl)acrylamide] | 0.05 to 0.1
11 | O=C1CN=C(c2ccc(C(=O)NO)cc2)c2cc(Br)sc2N1 [(Z)-4-(7-bromo-2-oxo-2,3-dihydro-1H-thieno[2,3-e][1,4]diazepin-5-yl)-N-hydroxybenzamide] | 0.1 to 1

Same assay, conditions: read-out: HDAC Inhibtion (IC50 μM) HDAC Enzyme

Row | SMILES | IC50 [µM]
12 | O=C(NO)c1ccc(CCNC2=Nc3ccccc3Oc3ccccc32)cc1 [(E)-4-(2-(dibenzo[b,f][1,4]oxazepin-11-ylamino)ethyl)-N-hydroxybenzamide] | 0.1 to 1
13 | O=C(NO)c1ccc(CNC2=Nc3ccccc3N(C3CC3)c3ccccc32)cc1 [(E)-4-((5-cyclopropyl-5H-dibenzo[b,e][1,4]diazepin-11-ylamino)methyl)-N-hydroxybenzamide] | 0.1 to 1
14 | O=C(NO)c1ccc(CNC2=Nc3ccccc3Oc3ccccc32)cc1 [(E)-4-((dibenzo[b,f][1,4]oxazepin-11-ylamino)methyl)-N-hydroxybenzamide] | < 0.05
15 | O=C(NO)c1ccc(C2=Nc3ccccc3Oc3ccccc32)c(F)c1 [(E)-4-(dibenzo[b,f][1,4]oxazepin-11-yl)-3-fluoro-N-hydroxybenzamide] | 1 to 10
16 | O=C(NO)c1ccc(C2=Nc3ccccc3Oc3ccccc32)o1 [(E)-5-(dibenzo[b,f][1,4]oxazepin-11-yl)-N-hydroxyfuran-2-carboxamide] | 1 to 10
17 | O=C(NO)c1ccc(C2=Nc3ccccc3Oc3ccccc32)s1 [(E)-5-(dibenzo[b,f][1,4]oxazepin-11-yl)-N-hydroxythiophene-2-carboxamide] | < 0.05
18 | O=C(NO)c1ccc(C2=Nc3ccccc3Oc3ccccc32)nc1 [(E)-6-(dibenzo[b,f][1,4]oxazepin-11-yl)-N-hydroxynicotinamide] | 0.1 to 1
19 | O=C(NO)c1ccc(-c2ccc3c(c2)C(N2CCOCC2)=Nc2ccccc2O3)cc1 [(E)-N-hydroxy-4-(11-morpholinodibenzo[b,f][1,4]oxazepin-2-yl)benzamide] | < 0.05
20 | O=C(NO)c1cccc(C2=Nc3ccccc3Oc3ccccc32)c1 [(Z)-3-(dibenzo[b,f][1,4]oxazepin-11-yl)-N-hydroxybenzamide] | 0.1 to 1
21 | O=C(NO)c1ccc(C2=Nc3ccccc3Oc3cccc(F)c32)cc1 [(Z)-4-(1-fluorodibenzo[b,f][1,4]oxazepin-11-yl)-N-hydroxybenzamide] | < 0.05
22 | O=C(NO)c1ccc(C2=Nc3ccccc3Oc3ccc(Cl)cc32)cc1 [(Z)-4-(2-chlorodibenzo[b,f][1,4]oxazepin-11-yl)-N-hydroxybenzamide] | < 0.05
23 | COc1cc(F)cc2c1Oc1ccccc1N=C2c1ccc(C(=O)NO)cc1 [(Z)-4-(2-fluoro-4-methoxydibenzo[b,f][1,4]oxazepin-11-yl)-N-hydroxybenzamide] | < 0.05

Other lines, results leading:

Row | IC50 [µM] | SMILES
24 | < 0.05 | O=C(NO)c1ccc(C2=Nc3ccccc3Oc3ccc(F)cc32)cc1 [(Z)-4-(2-fluorodibenzo[b,f][1,4]oxazepin-11-yl)-N-hydroxybenzamide]
25 | 0.1 to 1 | O=C(NO)c1ccc(C2=Nc3ccccc3Oc3cc(F)ccc32)cc1 [(Z)-4-(3-fluorodibenzo[b,f][1,4]oxazepin-11-yl)-N-hydroxybenzamide]
26 | 0.1 to 1 | O=C(NO)c1ccc(C2=Nc3ccccc3Oc3c(F)cccc32)cc1 [(Z)-4-(4-fluorodibenzo[b,f][1,4]oxazepin-11-yl)-N-hydroxybenzamide]
27 | 0.05 to 0.1 | O=C(NO)c1ccc(C2=Nc3ccccc3N(C3CC3)c3ccc(F)cc32)cc1 [(Z)-4-(5-cyclopropyl-2-fluoro-5H-dibenzo[b,e][1,4]diazepin-11-yl)-N-hydroxybenzamide]
28 | 1 to 10 | CN(O)C(=O)c1ccc(C2=Nc3ccccc3N(C3CC3)c3ccccc32)cc1 [(Z)-4-(5-cyclopropyl-5H-dibenzo[b,e][1,4]diazepin-11-yl)-N-hydroxy-N-methylbenzamide]
29 | 0.1 to 1 | O=C(NO)c1ccc(C2=Nc3ccccc3N(C3CC3)c3ccccc32)cc1 [(Z)-4-(5-cyclopropyl-5H-dibenzo[b,e][1,4]diazepin-11-yl)-N-hydroxybenzamide]
30 | 0.05 to 0.1 | CCN1c2ccccc2N=C(c2ccc(C(=O)NO)cc2)c2ccccc21 [(Z)-4-(5-ethyl-5H-dibenzo[b,e][1,4]diazepin-11-yl)-N-hydroxybenzamide]
31 | < 0.05 | O=C(NO)c1ccc(C2=Nc3ccccc3Cn3cccc32)cc1 [(Z)-4-(5H-benzo[e]pyrrolo[1,2-a][1,4]diazepin-11-yl)-N-hydroxybenzamide]
32 | 0.1 to 1 | O=C(NO)c1ccc(C2=Nc3ccccc3Nc3ccccc32)cc1 [(Z)-4-(5H-dibenzo[b,e][1,4]diazepin-11-yl)-N-hydroxybenzamide]
33 | 0.05 to 0.1 | O=C(NO)c1ccc(C2=Nc3cccc(F)c3Oc3ccccc32)cc1 [(Z)-4-(6-fluorodibenzo[b,f][1,4]oxazepin-11-yl)-N-hydroxybenzamide]
34 | 0.1 to 1 | O=C(NO)c1ccc(C2=Nc3ccc(Cl)cc3Oc3ccccc32)cc1 [(Z)-4-(7-chlorodibenzo[b,f][1,4]oxazepin-11-yl)-N-hydroxybenzamide]
35 | < 0.05 | N#Cc1ccc2c(c1)Oc1ccccc1C(c1ccc(C(=O)NO)cc1)=N2 [(Z)-4-(7-cyanodibenzo[b,f][1,4]oxazepin-11-yl)-N-hydroxybenzamide]
36 | 0.05 to 0.1 | O=C(NO)c1ccc(C2=Nc3cc(Cl)ccc3Nc3ccccc32)cc1 [(Z)-4-(8-chloro-5H-dibenzo[b,e][1,4]diazepin-11-yl)-N-hydroxybenzamide]
